Assay results from ChEMBL document CHEMBL4020706, “Design, synthesis and biological evaluation of novel hydroxamates and 2-aminobenzamides as potent histone deacetylase inhibitors and antitumor agents” (Eur J Med Chem, 2017).
pIC50: −log10 of the molar value.

How the values were obtained:
[1] = system: A549; test: Induction of apoptosis in human A549 cells assessed as early apoptotic cells at 4 umol/L after 48 hrs by Alexa Fluor 488 Annexin/propidium iodide staining-based flow cytometry (reference value: 3.41%); assay type: functional
[2] = system: MGC-803; test: Antiproliferative activity against human MGC803 cells after 72 hrs by CCK-8 reagent based assay; assay type: functional, cell-based; conditions: MGC-803, 72 h
[3] = system: A549; test: Antiproliferative activity against human A549 cells after 72 hrs by CCK-8 reagent based assay; assay type: functional, cell-based; conditions: A549, 72 h
[4] = system: A549; test: Induction of apoptosis in human A549 cells assessed as late apoptotic cells at 8 umol/L after 48 hrs by Alexa Fluor 488 Annexin/propidium iodide staining-based flow cytometry (reference value: 2.93%); assay type: functional
[5] = system: A549; test: Cell cycle arrest in human A549 cells assessed as accumulation at G0/G1 phase at 2 umol/L after 48 hrs by propidium iodide staining-based flow cytometry (reference value: 75.77%); assay type: functional
[6] = system: A549; test: Cell cycle arrest in human A549 cells assessed as accumulation at S phase at 2 umol/L after 48 hrs by propidium iodide staining-based flow cytometry (reference value: 15.13%); assay type: functional
[7] = system: HCT-116; test: Antiproliferative activity against human HCT116 cells after 72 hrs by CCK-8 reagent based assay; assay type: functional, cell-based; conditions: HCT-116, 72 h
[8] = system: A549; test: Cell cycle arrest in human A549 cells assessed as accumulation at G2/M phase at 16 umol/L after 48 hrs by propidium iodide staining-based flow cytometry (reference value: 9.1%); assay type: functional; conditions: at 16 µM
[9] = system: A549; test: Cell cycle arrest in human A549 cells assessed as accumulation at G2/M phase at 2 umol/L after 48 hrs by propidium iodide staining-based flow cytometry (reference value: 9.1%); assay type: functional; conditions: at 2 µM
[10] = system: A549; test: Cell cycle arrest in human A549 cells assessed as accumulation at G0/G1 phase at 16 umol/L after 48 hrs by propidium iodide staining-based flow cytometry (reference value: 75.77%); assay type: functional
[11] = system: HepG2; test: Antiproliferative activity against human HepG2 cells after 72 hrs by CCK-8 reagent based assay; assay type: functional, cell-based; conditions: HepG2, 72 h
[12] = system: A549; test: Induction of apoptosis in human A549 cells assessed as viable cells at 8 umol/L after 48 hrs by Alexa Fluor 488 Annexin/propidium iodide staining-based flow cytometry (reference value: 92.79%); assay type: functional; conditions: A549, 48 h, read-out: Activity
[13] = system: A549; test: Induction of apoptosis in human A549 cells assessed as necrotic cells at 8 umol/L after 48 hrs by Alexa Fluor 488 Annexin/propidium iodide staining-based flow cytometry (reference value: 0.87%); assay type: functional
[14] = system: A549; test: Induction of apoptosis in human A549 cells assessed as necrotic cells at 4 umol/L after 48 hrs by Alexa Fluor 488 Annexin/propidium iodide staining-based flow cytometry (reference value: 0.87%); assay type: functional
[15] = system: A549; test: Cell cycle arrest in human A549 cells assessed as accumulation at S phase at 16 umol/L after 48 hrs by propidium iodide staining-based flow cytometry (reference value: 15.13%); assay type: functional
[16] = system: A549; test: Induction of apoptosis in human A549 cells assessed as late apoptotic cells at 4 umol/L after 48 hrs by Alexa Fluor 488 Annexin/propidium iodide staining-based flow cytometry (reference value: 2.93%); assay type: functional
[17] = system: A549; test: Induction of apoptosis in human A549 cells assessed as early apoptotic cells at 8 umol/L after 48 hrs by Alexa Fluor 488 Annexin/propidium iodide staining-based flow cytometry (reference value: 3.41%); assay type: functional
[18] = system: A549; test: Induction of apoptosis in human A549 cells assessed as viable cells at 4 umol/L after 48 hrs by Alexa Fluor 488 Annexin/propidium iodide staining-based flow cytometry (reference value: 92.79%); assay type: functional; conditions: A549, 48 h, read-out: Activity
[19] = system: A549; test: Induction of apoptosis in human A549 cells after 48 hrs by Alexa Fluor 488 Annexin/propidium iodide staining-based flow cytometry; assay type: functional, cell-based
[20] = target: T1, Protein deacetylase HDAC6 (Homo sapiens, UniProt Q9UBN7); test: Inhibition of human recombinant HDAC6 using Fluor de Lys as substrate after 60 mins by fluorometric assay
T1 sequence (Q9UBN7 whole entry): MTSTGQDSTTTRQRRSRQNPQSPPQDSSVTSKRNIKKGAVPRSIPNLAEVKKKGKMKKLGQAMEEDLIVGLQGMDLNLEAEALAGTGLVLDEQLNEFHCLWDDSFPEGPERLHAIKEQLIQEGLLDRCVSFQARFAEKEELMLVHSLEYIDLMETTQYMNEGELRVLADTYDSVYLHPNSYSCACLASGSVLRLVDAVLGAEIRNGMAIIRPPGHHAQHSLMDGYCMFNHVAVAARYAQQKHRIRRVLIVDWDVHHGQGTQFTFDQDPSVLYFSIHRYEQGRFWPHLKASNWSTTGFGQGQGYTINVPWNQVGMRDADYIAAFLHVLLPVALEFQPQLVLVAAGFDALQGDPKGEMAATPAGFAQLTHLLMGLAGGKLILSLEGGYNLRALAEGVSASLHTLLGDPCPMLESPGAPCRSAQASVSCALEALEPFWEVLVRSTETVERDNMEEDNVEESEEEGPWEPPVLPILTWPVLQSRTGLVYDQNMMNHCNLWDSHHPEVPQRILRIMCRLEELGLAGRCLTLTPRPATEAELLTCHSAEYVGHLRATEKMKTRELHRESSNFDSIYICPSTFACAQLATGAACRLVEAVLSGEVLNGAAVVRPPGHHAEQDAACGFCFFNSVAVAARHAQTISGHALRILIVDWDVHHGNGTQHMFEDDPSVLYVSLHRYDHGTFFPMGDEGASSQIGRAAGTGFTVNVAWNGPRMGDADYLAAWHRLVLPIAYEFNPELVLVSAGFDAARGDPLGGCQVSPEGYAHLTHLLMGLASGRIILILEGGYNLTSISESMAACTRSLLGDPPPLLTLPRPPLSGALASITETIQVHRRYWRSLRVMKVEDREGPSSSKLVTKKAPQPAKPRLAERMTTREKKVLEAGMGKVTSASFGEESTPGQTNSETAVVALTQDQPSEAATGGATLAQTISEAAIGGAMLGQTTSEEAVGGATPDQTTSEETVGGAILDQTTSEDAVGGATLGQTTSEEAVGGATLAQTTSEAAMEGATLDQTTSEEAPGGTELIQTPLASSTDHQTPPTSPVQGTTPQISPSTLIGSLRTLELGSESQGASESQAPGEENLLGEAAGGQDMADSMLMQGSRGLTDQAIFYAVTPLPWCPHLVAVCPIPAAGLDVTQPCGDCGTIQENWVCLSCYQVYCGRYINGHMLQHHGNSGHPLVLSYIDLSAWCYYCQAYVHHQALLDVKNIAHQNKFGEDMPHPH

[21] = target: Histone deacetylase 1 (Homo sapiens, UniProt Q13547); test: Inhibition of human recombinant HDAC1 using Fluor de Lys as substrate by fluorometric assay
[22] = target: Histone deacetylase 2 (Homo sapiens, UniProt Q92769); test: Inhibition of human recombinant HDAC2 using Fluor de Lys green as substrate by fluorometric assay
[23] = system: A549; test: Inhibition of colony formation in human A549 cells after 7 days by crystal violet staining based assay; assay type: functional, cell-based
[24] = system: A549; test: Cell cycle arrest in human A549 cells assessed as accumulation at G2/M phase after 48 hrs by propidium iodide staining-based flow cytometry; assay type: functional

Chain of Histone deacetylase 2 (Q92769 whole entry): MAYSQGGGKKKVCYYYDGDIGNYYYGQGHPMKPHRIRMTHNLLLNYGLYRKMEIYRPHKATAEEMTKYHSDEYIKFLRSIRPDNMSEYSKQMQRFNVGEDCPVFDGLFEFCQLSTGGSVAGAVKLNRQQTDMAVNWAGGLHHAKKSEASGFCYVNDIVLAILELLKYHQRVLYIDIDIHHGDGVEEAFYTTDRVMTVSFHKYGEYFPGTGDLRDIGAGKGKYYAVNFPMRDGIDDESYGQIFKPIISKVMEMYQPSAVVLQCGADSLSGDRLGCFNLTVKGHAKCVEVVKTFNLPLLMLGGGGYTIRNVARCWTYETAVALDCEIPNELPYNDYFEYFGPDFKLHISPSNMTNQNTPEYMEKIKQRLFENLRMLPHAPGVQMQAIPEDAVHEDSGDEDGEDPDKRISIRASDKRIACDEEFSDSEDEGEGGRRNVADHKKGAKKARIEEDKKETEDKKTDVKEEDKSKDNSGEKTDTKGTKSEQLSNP
Chain of Histone deacetylase 1 (Q13547 whole entry): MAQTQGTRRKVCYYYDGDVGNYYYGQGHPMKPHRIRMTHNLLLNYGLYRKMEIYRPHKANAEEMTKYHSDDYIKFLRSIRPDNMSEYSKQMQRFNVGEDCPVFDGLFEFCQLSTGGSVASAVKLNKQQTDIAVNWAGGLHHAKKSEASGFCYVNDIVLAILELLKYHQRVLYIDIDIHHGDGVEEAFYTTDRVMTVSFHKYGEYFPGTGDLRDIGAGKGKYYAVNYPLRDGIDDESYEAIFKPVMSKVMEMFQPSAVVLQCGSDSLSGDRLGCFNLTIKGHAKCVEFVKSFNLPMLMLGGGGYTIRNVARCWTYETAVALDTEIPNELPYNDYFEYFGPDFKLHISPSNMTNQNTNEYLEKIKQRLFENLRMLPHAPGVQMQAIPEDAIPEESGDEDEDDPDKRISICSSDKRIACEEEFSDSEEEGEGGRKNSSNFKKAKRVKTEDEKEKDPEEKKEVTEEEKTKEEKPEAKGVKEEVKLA

| pIC50 [2] | pIC50 [3] | pIC50 [7] | pIC50 [11] | Structure (SMILES) | further results |
| --- | --- | --- | --- | --- | --- |
| 5.19 | 4.96 | 5.64 | 4.64 | Nc1ccc(F)cc1NC(=O)c1ccc(CNC(=O)/C=C/c2cccnc2)cc1 | Activity [1]: 10.55%; Activity [4]: 8.94%; Activity [5]: 80.14%; Activity [6]: 10.02%; Activity [8]: 6.46%; Activity [9]: 9.84%; Activity [10]: 85.67%; viability at 8 µM [12]: 75.5%; Activity [13]: 2.1%; Activity [14]: 1.52%; Activity [15]: 7.87%; Activity [16]: 6.27%; Activity [17]: 13.48%; viability at 4 µM [18]: 81.6% |
| 5.30 | 5.27 | 5.41 | 5.42 | Nc1ccccc1NC(=O)c1ccc(COc2ccc(F)cc2)cc1 | Activity [1]: 14.37%; Activity [19]: Dose-dependent effect; pIC50 [20]: < 4.40; pIC50 [21]: 5.90; Activity [4]: 28.88%; Activity [5]: 84.93%; Activity [6]: 6.1%; Activity [8]: 37.74%; pIC50 [22]: 6.24; Activity [9]: 8.97%; Activity [10]: 54.03%; viability at 8 µM [12]: 29.7%; Activity [13]: 6.34%; Activity [14]: 3.74%; Activity [15]: 8.23%; inhibition [23]: Dose-dependent effect; Activity [16]: 10.93%; Activity [17]: 35.52%; Activity [24]: Dose-dependent effect; viability at 4 µM [18]: 70.9% |
|  | 4.55 |  | 4.53 | O=C(NO)c1ccc(COc2ccccc2)cc1 |  |
|  | 5.26 |  | 4.83 | O=C(/C=C/c1ccc(CN2CCc3ccccc32)cc1)NO |  |
| < 4.49 | < 4.49 | < 4.49 | < 4.49 | Nc1ccccc1NC(=O)c1ccc(COc2ccc([N+](=O)[O-])cc2)cc1 |  |
| < 4.49 | 4.61 | < 4.49 | < 4.49 | Nc1ccccc1NC(=O)c1ccc(COc2ccc(Br)cc2)cc1 |  |
| 5.25 | 5.17 | 5.31 | 5.17 | Nc1ccccc1NC(=O)c1ccc(COc2ccccc2)cc1 |  |
| < 4.49 | < 4.49 |  | < 4.49 | Nc1cnccc1NC(=O)/C=C/c1ccc(COc2ccccc2)cc1 |  |
| 5.23 | 5.19 | 5.32 | 5.16 | CCc1ccc(OCc2ccc(C(=O)Nc3ccccc3N)cc2)cc1 |  |
| 5.46 | 5.26 | 5.69 | 5.38 | COc1ccc(OCc2ccc(C(=O)Nc3ccccc3N)cc2)cc1 | inhibition [23]: Dose-dependent effect |
|  | 5.05 |  | 5.11 | C/C(=N\O)c1ccc(OCc2ccc(C(=O)NO)cc2)cc1 |  |
| 5.13 |  |  | 4.97 | Nc1ccccc1NC(=O)c1ccc(CN2CCc3cc(Br)ccc32)cc1 |  |
| < 4.49 | < 4.49 | 4.76 | < 4.49 | Nc1ccccc1NC(=O)c1ccc(COc2ccc(Cl)cc2)cc1 |  |
| 4.85 |  |  | 4.87 | Nc1ccccc1NC(=O)/C=C/c1ccc(CN2CCc3ccccc3C2)cc1 |  |
| 5.35 | 5.28 | 5.49 | 5.32 | CCCc1ccc(OCc2ccc(C(=O)Nc3ccccc3N)cc2)cc1 |  |
| 5.19 | 5.27 | 5.31 | 5.18 | Cc1ccc(OCc2ccc(C(=O)Nc3ccccc3N)cc2)cc1 |  |
| < 4.49 | < 4.49 |  | < 4.49 | Nc1ccccc1NC(=O)/C=C/c1ccc(COc2ccccc2)cc1 |  |
| < 4.49 | 5.13 | 5.34 | < 4.49 | CC(C)c1ccc(OCc2ccc(C(=O)Nc3ccccc3N)cc2)cc1 |  |
|  | 5.24 |  | 5.08 | O=C(/C=C/c1ccc(COc2ccccc2)cc1)NO |  |
| 4.94 | 4.70 | 5.11 | 4.73 | CC(=O)Nc1ccc(C(=O)Nc2ccccc2N)cc1 [TACEDINALINE] | Activity [1]: 6.96%; Activity [4]: 4.76%; Activity [5]: 81.59%; Activity [6]: 9.31%; Activity [8]: 6.02%; Activity [9]: 9.1%; Activity [10]: 89.32%; viability at 8 µM [12]: 85.6%; Activity [13]: 1.8%; Activity [14]: 2.91%; Activity [15]: 4.66%; Activity [16]: 4.39%; Activity [17]: 7.82%; viability at 4 µM [18]: 85.7% |
| 5.22 | 5.08 |  | 5.15 | Nc1cc(F)ccc1NC(=O)c1ccc(COc2ccccc2)cc1 |  |
| < 4.49 | 4.87 |  | < 4.49 | Nc1ccccc1NC(=O)/C=C/c1ccc(CN2CCc3ccccc32)cc1 |  |
